This note sets out measurements from patent US5922748A, “Indole derivatives as 5-HT agonists” (Glaxo Wellcome Inc., priority 1994, dated 1999).

Like-named read-outs stand apart in the source and are kept apart here. A value given as a limit tells only on which side of the number the result lay.

In assay [1] the target is T1, "5-HT1 -like" receptor mediating smooth muscle contraction (Oryctolagus cuniculus, UniProt P49144).
T1 construct: Right and left lateral saphenous veins were obtained from male New Zealand White Rabbits; from tissue; host or cells: rabbit lateral saphenous vein ring segments
T1 sequence (P49144 whole entry): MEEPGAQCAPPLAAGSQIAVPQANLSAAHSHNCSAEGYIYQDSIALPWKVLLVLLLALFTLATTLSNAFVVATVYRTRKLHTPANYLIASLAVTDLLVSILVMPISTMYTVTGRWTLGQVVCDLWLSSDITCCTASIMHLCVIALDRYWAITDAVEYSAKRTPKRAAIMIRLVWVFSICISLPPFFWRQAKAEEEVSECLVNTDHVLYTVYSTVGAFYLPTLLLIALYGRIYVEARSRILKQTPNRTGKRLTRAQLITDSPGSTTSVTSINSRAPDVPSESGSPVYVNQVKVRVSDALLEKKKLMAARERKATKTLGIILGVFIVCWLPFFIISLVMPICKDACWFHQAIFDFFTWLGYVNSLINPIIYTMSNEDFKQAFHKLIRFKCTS
In words: Rabbit Saphenous Vein Assay (contraction of isolated ring segments). It is filed as cell-based, male New Zealand White Rabbits. As to conditions: antagonism, given where compounds were found to be antagonists.

The target of assay [2] is T1, "5-HT1 -like" receptor mediating smooth muscle contraction. The assay is described as above. The assay is classed as cell-based, male New Zealand White Rabbits. As to conditions: for Emax: read-out: (α). The protocol: A: Rabbit Saphenous Vein Assay
Compounds of formula (I) prepared in Synthetic Examples 1 to 17 were each tested for their activity as agonists […] for the "5-HT1 -like" receptor mediating smooth muscle contraction by the following method.
[…]. Cocaine (30 μM) was present in the Krebs' solution throughout the experiment to prevent the uptake of amines by sympathetic neurones. The Krebs' solution was maintained at 37° C. and continually gassed with 95% oxygen/5% carbon dioxide. Increases in tissue isometric force were measure using Grass FT03C force displacement transducers and recorded on a Gould BD-212 pen recorder.
A force of 1.0 g was applied to each preparation and re-established twice during a subsequent period of 30 minutes.
Agonist activity was assessed by […] additions of the test compound, its concentration being increased in 0.5 log10 unit increments until further additions caused no further change in tissue force. In each experiment, the activity of the test compound was compared to the activity of 5-HT.

In assay [3] the target is T2, "5-HT1 -like" receptor (Bos taurus, UniProt F1MGM3).
T2 construct: Membranes were prepared from homogenates of calf caudate nucleus; from tissue; host or cells: calf caudate nucleus membranes
T2 sequence (F1MGM3 1-403): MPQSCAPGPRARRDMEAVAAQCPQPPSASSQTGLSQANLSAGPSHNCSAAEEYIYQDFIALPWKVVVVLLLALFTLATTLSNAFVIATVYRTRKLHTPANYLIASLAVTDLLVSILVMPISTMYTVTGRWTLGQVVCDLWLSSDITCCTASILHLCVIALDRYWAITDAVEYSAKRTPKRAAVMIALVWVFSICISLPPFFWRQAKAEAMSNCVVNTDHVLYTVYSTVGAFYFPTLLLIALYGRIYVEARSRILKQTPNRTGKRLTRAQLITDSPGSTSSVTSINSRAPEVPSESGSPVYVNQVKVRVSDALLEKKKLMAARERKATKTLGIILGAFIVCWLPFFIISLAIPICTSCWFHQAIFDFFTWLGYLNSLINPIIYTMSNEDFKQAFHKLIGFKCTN
Briefly: Calf Caudate Assay (competition binding with [3H]-5HT, calf caudate nucleus membranes). As to conditions: 3.5 nM [3H]-5HT with 15 μM mesulergine and 15 μM 8-OH-DPAT, text says pIC50 converted by Cheng-Prusoff.

Setting [4] is: agonism, rabbit saphenous vein rings, 37° C., pH 7.4, compared to 5-HT, read-out: pA50 (converted).
[5] abbreviates: value in parentheses after pA50 in Table 1, rabbit saphenous vein, compared to 5-HT.

In assay [1], `CN(C)[C@H]1C[C@H](c2c[nH]c3ccc(C(=O)NCc4ccccc4)cc32)C1` [Example 23] had a Kb of 1260 nM.
The same measure, in the same setting: the result for `CN(C)[C@H]1C[C@H](c2c[nH]c3ccc(CN4C(=O)NC(C)(C)C4=O)cc32)C1` [Example 12, 5,5-dimethyl-3-[3-(trans-3-dimethylaminocyclobutyl)-1H-indol-5-ylmethyl]imidazolidin-2,4-dione] reads 589 nM.
In the case of `N[C@H]1C[C@H](c2c[nH]c3ccc(Oc4ccccc4)cc32)C1` [Example 16, 5-phenoxy-3-(trans-3-aminocyclobutyl)-1H-indole], the Kb in assay [2] was greater than 316 nM.
In assay [1], `Cc1nc(Cc2ccc3[nH]cc([C@H]4C[C@H](N(C)C)C4)c3c2)n[nH]1` [Example 28, 3-methyl-5-[3-(trans-3-dimethylaminocyclobutyl)-1H-indol-5-ylmethl]1,2,4-triazole] showed a Kb of 6610 nM.
`N[C@H]1C[C@@H](c2c[nH]c3ccc(C[C@H]4COC(=O)N4)cc32)C1` [Example 1 (cis), 4-[3-(cis-3-aminocyclobutyl)-5-indolymethyl]-(4S)-oxazolidin-2-one acetate]: the EC50 in assay [2] (setting [4]) was 1580 nM. Besides, in assay [2] (rabbit), the Emax turned out to be 76%.
Turning to `CN(C)[C@H]1C[C@H](c2c[nH]c3ccc(CC4CNC(=O)O4)cc32)C1` (single isomer, unassigned; (+)) [Example 21, (+)-5-[3-trans-3-dimethylaminocyclobutyl-1H-indol-5-lmethyl]oxazolidin-2-one], in assay [2] (setting [4]), the EC50 was 3630 nM. The Emax in assay [2] (setting [5]) was found to be 16%.
On the same counts, the results for `CN1C(=O)OC[C@H]1Cc1ccc2[nH]cc([C@H]3C[C@H](N(C)C)C3)c2c1` [Example 13, 4-[3-(trans-3-dimethylaminocyclobutyl)-1H-indol-5-ylmethyl]-3-methyl(4R)oxazolidin-2-one] are 14100 nM and 38%.
In the case of `CN(C)[C@H]1C[C@H](c2c[nH]c3ccc(C[C@H]4COC(=O)N4)cc32)C1` [Example 4, 4-[3-(trans-3-dimethylaminocyclobutyl)-1H-indol-5-ylmethyl]-(4S)oxazolidin-2-one], the EC50 in assay [2] (setting [4]) was 1910 nM. Moreover, the Emax in assay [2] (setting [5]) is 9%.
The compound `CN(C)[C@H]1C[C@H](c2c[nH]c3ccc(CC(N)=O)cc32)C1` [Example 25, 3-[trans-3-dimethylaminocyclobutyl]-1H-indol-5-yl acetamide] showed a Kb in assay [2] of 16600 nM.
On to `CC1(C)NC(=O)N(CCc2ccc3[nH]cc([C@H]4C[C@H](N)C4)c3c2)C1=O` [Example 6, 3-{2-[3-(trans-3-aminocyclobutyl)-1H-indol-5-yl]ethyl}-5,5-dimethylimidazolidin-2,4-dione], for which, in assay [1], the Kb was 2690 nM.
On the same count and under the same terms, as for `CN(C)[C@H]1C[C@H](c2c[nH]c3ccc(CCN4C(=O)CNC4=O)cc32)C1` [Example 3], the figure is 1910 nM; as for `CN(C)[C@H]1C[C@H](c2c[nH]c3ccc(CC(=O)NCc4ccccc4)cc32)C1` [Example 26, N-benzyl-3-[trans-3-dimethylaminocyclobutyl]-1H-indol-5-yl acetamide], 3890 nM.
What is called pKb is the negative decadic logarithm of the Kb, by convention in mol/L. Read a low pKb as a high Kb. In assay [1], `CN(C)[C@H]1C[C@H](c2c[nH]c3ccc(CCN4C(=O)CC5(CCCCC5)CC4=O)cc32)C1` [Example 8, 3-{2-[3-(trans-3-dimethylaminocyclobutyl)-1H-indol-5-yl]ethyl}-3-azaspiro[5,5]undecane-2,4-dione] had a pKb of 7.18.
As for `N[C@H]1C[C@H](c2c[nH]c3ccc(C[C@H]4COC(=O)N4)cc32)C1` [Example 1, 4-[3-(trans-3-aminocyclobutyl)-5-indolylmethyl)-(4S)-oxazolidin-2-one], in assay [3], the “Activity P[A50 ]” value came out at 7.8.
With `CN(C)[C@H]1C[C@H](c2c[nH]c3ccc(Oc4ccccc4)cc32)C1` [Example 17, 5-phenoxy-3-(trans-3-dimethylaminocyclobutyl)-1H-indole], the Kb in assay [2] was 240 nM.
`CN(C)[C@H]1C[C@H](c2c[nH]c3ccc(CCN4C(=O)c5ccccc5C4=O)cc32)C1` [Example 7] gave a Kb in assay [1] of 170 nM.
Same read-out and setting: the result for `CN(C)[C@H]1C[C@H](c2c[nH]c3ccc(CN4C(=O)CNC4=O)cc32)C1` [Example 9, 3-[3-(trans-3-dimethylaminocyclobutyl)-1H-indol-5-ylmethyl]imidazolidin-2,4-dione] reads 9330 nM; that for `CN(C)[C@H]1C[C@H](c2c[nH]c3ccc(C[C@@H]4COC(=O)N4)cc32)C1` [Example 11, 4-[3-(trans-3-dimethylaminocyclobutyl)-1H-indol-5-ylmethyl]-(4R)oxazolidin-2-one], 11200 nM.
On to `CN[C@H]1C[C@H](c2c[nH]c3ccc(C[C@H]4COC(=O)N4)cc32)C1` [Example 22, 4-[3-(trans-3-methylaminocyclobutyl)-1H-indol-5-ylmethyl]-(4S) oxazolidin-2-one], for which the EC50 in assay [2] (setting [4]) was 708 nM. Besides, the Emax in assay [2] (setting [5]) came out at 72%.
In turn, `CN(C)[C@H]1C[C@H](c2c[nH]c3ccc(CCN4C(=O)NC(C)(C)C4=O)cc32)C1` [Example 5] gave a Kb in assay [1] of 891 nM.
Turning to `Cc1noc(Cc2ccc3[nH]cc([C@H]4C[C@H](N(C)C)C4)c3c2)n1` [Example 27, 3-methyl-5-[3-(trans-3-dimethylaminocyclobutyl)-1H-indol-5-ylmethyl] 1,2,4-oxadiazole], the Kb in assay [1] is 759000 nM.
On to `CN(C)[C@H]1C[C@H](c2c[nH]c3ccc(C(N)=O)cc32)C1` [Example 14, 5-carboxamido-3-(trans-3-dimethylaminocyclobutyl)-1H-indole], for which the EC50 in assay [2] is 562 nM. The Emax in assay [2] (rabbit) came to 52%.
Turning to `CN(C)[C@H]1C[C@H](c2c[nH]c3ccc(CCN4C(=O)c5ccccc5C4=O)cc32)C1` [Example 24, 2-{2-[3-(trans-3-dimethylaminocyclobutyl)-1H-indol-5-yl]ethyl} phthalamide], the EC50 in assay [2] (setting [4]) was 6170 nM. For the same compound, the Emax in assay [2] (setting [5]) came out at 48%.
`CNS(=O)(=O)Cc1ccc2[nH]cc([C@H]3C[C@H](N(C)C)C3)c2c1` [Example 10, N-methyl-[3-(trans-3-dimethylaminocyclobutyl)-1H-indol-5-yl]methanesulphonamide] gave a Kb in assay [2] of 5620 nM.
Turning to `CN(C)[C@H]1C[C@@H](c2c[nH]c3ccc(C[C@H]4COC(=O)N4)cc32)C1` [Example 15], the EC50 in assay [2] (setting [4]) is 7080 nM. Besides, in assay [2] (setting [5]), the Emax stood at 29%.
“4-[3-(trans-3dimethylaminocyclobut-1-ylmethyl)-1H-indol-5-ylmethyl]-(4S)oxazolidin-2-one [Example 19]”: the pKb in assay [1] was 5.73.
Turning to `Cc1noc(-c2ccc3[nH]cc([C@H]4C[C@H](N(C)C)C4)c3c2)n1` [Example 18, 3-methyl-5-[3-(trans-3-dimethylaminocyclobutyl)indol-5-yl]-1,2,4-oxadiazole], in assay [2], the Kb was 955 nM.
In assay [2], `N[C@H]1C[C@H](c2c[nH]c3ccc(C[C@H]4COC(=O)N4)cc32)C1` [Example 1 (trans), 4-[3-(trans-3-aminocyclobutyl)-5-indolylmethyl)-(4S)-oxazolidin-2-one acetate] showed an EC50 of 380 nM. In assay [2] (rabbit), the Emax worked out at 78%.
